From US20200308299A1, “ANTI-GPC-1 ANTIBODY” (National University Corporation Kochi University, priority 2017, published 2020)
Non-standard residues stand in square brackets, D forms with d. Residues, ends and D or L forms follow the SMILES beside them. *: point of attachment. Dolaproine = CO[C@@H]([C@@H]1CCCN1)[C@@H](C)C(=O)O; Dil = CC[C@H](C)[C@H](NC)[C@@H](CC(=O)O)OC; X1 = C[C@@H](N*)[C@@H](O)c1ccccc1; NMeV = CN[C@H](C(=O)O)C(C)C

Test system: TE14 cells
Assay: Anticancer agent sensitivity of TE14 cells (CellTiter-Glo cell viability)
Assay type: cell-based
Details: cultured 6 days
Experimental: 2000 TE14 cells were added to a 96-well plate at 90 μl. The cells were cultured overnight at 37° C. in a 5% CO2 incubator. The next day, 10 μl of an anticancer agent concentrated 10-fold relative to the final concentration was added to each well, so that the total amount was 100 μl. The cells were cultured for 6 days at 37° C. in a 5% CO2 incubator. The cell viability was measured by using a CellTiter-Glo Luminescent Cell Viability Assay reagent to detect the amount of ATP. RPMI1640+10% FBS+1% PS was used as the medium. MMAE (model number: 474645-27-7, ALB Technology) and MMAF (model number: 745017-94-1, ALB Technology) were used as the anticancer agent.

| SMILES | IC50 |
| --- | --- |
| CC[C@H](C)[C@@H]([C@@H](CC(=O)N1CCC[C@H]1[C@H](OC)[C@@H](C)C(=O)N[C@H](C)[C@@H](O)c1ccccc1)OC)N(C)C(=O)[C@@H](NC(=O)[C@@H](NC)C(C)C)C(C)C [MMAE, monomethyl auristatin-E] (H-[NMeV]V[Dil][Dolaproine]-X1) | 0.926 nM |
| CC[C@H](C)[C@@H]([C@@H](CC(=O)N1CCC[C@H]1[C@H](OC)[C@@H](C)C(=O)N[C@@H](Cc1ccccc1)C(=O)O)OC)N(C)C(=O)[C@@H](NC(=O)[C@@H](NC)C(C)C)C(C)C [MMAF, monomethyl auristatin-F] (H-[NMeV]V[Dil][Dolaproine]F-OH) | 26.8 nM |
